42 compounds from patent US20240150377A1, “MODULATORS OF CYSTIC FIBROSIS TRANSMEMBRANE CONDUCTANCE REGULATOR” (VERTEX PHARMACEUTICALS INCORPORATED, priority 2020, published 2024) can be followed below.

Each structure is given as a SMILES string. Like-named read-outs stand apart in the source and are kept apart here.

This assay concerns the target T1, CFTR (Homo sapiens, UniProt P13569, DEL508-508).
T1 construct: endogenous in cells; host or cells: primary human bronchial epithelial cells from CF subjects (F508del/MF-HBE), differentiated at air-liquid interface
The experiment in a line: HBE assay: Ussing chamber assay of CFTR-mediated short-circuit currents. The class given is cell-based. Particulars: for EC50: read-out: HBE EC50. Put shortly:
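CFTR-mediated Isc (μA/cm²) equals the peak response to apical 20 μM forskolin minus the residual after a 20 μM each BPO/GlyH-101/CFTR inhibitor 172 cocktail, recorded in Ussing chambers at Vhold 0 mV, 37 °C, pH 7.4, with 30 μM apical amiloride. Cells were F508del/MF HBE cultures preincubated 18-24 h with corrector (concentration range or 10 μM) plus 1 μM ivacaftor in 20% human serum.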

Setting [1] is: Table 11, read-out: HBE Max Activity (%).
The mark [2] stands for this setting: Table 10, read-out: HBE Max activity (%).
The mark [3] stands for this setting: Table 13, read-out: HBE Activity at 10 μM (%).
Setting [4] is: Table 13, read-out: HBE Max Activity (%).
[5] abbreviates: Table 12, read-out: HBE Activity at 10 μM (%).
Setting [6] is: Table 12, read-out: HBE Max Activity (%).

T1 sequence (P13569 with tags, fused parts or gaps DEL508-508): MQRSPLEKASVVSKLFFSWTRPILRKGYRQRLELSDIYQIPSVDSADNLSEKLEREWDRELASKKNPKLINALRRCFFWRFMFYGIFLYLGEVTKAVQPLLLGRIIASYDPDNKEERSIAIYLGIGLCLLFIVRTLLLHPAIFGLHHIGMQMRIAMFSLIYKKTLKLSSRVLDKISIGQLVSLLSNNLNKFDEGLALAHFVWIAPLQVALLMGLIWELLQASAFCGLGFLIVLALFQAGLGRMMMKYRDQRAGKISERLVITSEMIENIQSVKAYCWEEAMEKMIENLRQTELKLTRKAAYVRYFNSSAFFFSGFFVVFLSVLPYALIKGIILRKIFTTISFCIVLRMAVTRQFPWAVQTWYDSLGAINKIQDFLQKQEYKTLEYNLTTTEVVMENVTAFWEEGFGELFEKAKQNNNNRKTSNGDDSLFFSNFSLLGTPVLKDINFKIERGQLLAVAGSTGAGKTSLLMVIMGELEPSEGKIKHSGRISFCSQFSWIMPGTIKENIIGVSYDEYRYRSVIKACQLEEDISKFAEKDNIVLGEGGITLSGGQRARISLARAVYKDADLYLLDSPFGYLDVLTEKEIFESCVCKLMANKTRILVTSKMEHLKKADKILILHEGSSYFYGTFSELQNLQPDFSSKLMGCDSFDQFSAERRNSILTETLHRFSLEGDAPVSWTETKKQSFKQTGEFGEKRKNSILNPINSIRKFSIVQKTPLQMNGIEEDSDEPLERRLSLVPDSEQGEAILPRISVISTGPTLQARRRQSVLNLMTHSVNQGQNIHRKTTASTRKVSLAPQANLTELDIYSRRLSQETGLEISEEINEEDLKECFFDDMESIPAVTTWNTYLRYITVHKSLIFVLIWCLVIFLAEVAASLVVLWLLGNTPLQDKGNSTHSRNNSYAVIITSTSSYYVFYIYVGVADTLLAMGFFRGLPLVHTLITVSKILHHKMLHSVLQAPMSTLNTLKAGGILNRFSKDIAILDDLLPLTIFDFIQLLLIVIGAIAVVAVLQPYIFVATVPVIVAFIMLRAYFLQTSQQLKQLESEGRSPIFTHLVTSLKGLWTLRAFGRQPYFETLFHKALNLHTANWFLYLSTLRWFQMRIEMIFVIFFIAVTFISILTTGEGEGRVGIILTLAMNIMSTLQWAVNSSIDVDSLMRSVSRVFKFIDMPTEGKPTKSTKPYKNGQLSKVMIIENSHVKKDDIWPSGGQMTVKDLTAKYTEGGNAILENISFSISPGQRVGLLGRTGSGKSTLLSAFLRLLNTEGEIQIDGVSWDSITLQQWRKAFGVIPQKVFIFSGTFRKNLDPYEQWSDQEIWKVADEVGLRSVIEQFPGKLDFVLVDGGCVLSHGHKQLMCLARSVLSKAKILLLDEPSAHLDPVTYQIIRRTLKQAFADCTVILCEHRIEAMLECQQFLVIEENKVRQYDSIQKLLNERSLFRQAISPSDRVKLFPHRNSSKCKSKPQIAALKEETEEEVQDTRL

One may read the EC50 as the concentration needed to bring the measured effect to its halfway point. For the compound `Cc1cccc(C)c1-c1cc2nc(n1)NS(=O)(=O)c1cccc(c1)C(=O)N(Cc1cncc(N3CCOCC3)n1)[C@H](CC(C)(C)C)CO2` [Compound 896], the EC50 (Table 11) is under 1000 nM. Moreover, the Emax under setting [1] was over 60%.

In the case of `Cc1cccc(C)c1-c1cc2nc(n1)NS(=O)(=O)c1cccc(c1)C(=O)N(Cc1cnc(OC(C)C)cn1)[C@H](CC(C)(C)C)CO2` [Compound 897], for the setting “Table 11”, the EC50 was under 1000 nM. The Emax under setting [1] was over 60%.

For `Cc1cccc(C)c1-c1cc2nc(n1)NS(=O)(=O)c1cccc(c1)C(=O)N(Cc1cnc(N(C)CC(C)(C)C)cn1)[C@H](CC(C)(C)C)CO2` [Compound 899], where the note is “Table 11”, the EC50 is under 1000 nM. Moreover, the Emax under setting [1] is over 60%.

Consider `COCCN(C)c1cnc(CN2C(=O)c3cccc(c3)S(=O)(=O)Nc3nc(cc(-c4c(C)cccc4C)n3)OC[C@H]2CC(C)(C)C)cn1` [Compound 900], for which the EC50 (Table 11) is 1000 to 3000 nM. Further, the Emax under setting [1] was over 60%.

For `Cc1cccc(C)c1-c1cc2nc(n1)NS(=O)(=O)c1cccc(c1)C(=O)N(CC1CCOC1)[C@H](CC(C)(C)C)CO2` (some centres unmarked) [Compound 901], the activation at 10 µM (Table 11, read-out: HBE Activity at 10 μM (%)) is over 60%.

For the compound `Cc1ccc(C)c(-c2cc3nc(n2)NS(=O)(=O)c2cccc(c2)C(=O)N(Cc2ccc(N4CCCCC4)cn2)[C@H](CC(C)(C)C)CO3)c1C` [Compound 902], the Emax under setting [1] was under 30%.

For the compound `COC1CCC(CN2C(=O)c3cccc(c3)S(=O)(=O)Nc3nc(cc(-c4c(C)cccc4C)n3)OC[C@H]2CC(C)(C)C)CC1` (some centres unmarked) [Compound 903], the EC50 (Table 11) was under 1000 nM. Further, the Emax under setting [1] was over 60%.

In the case of `Cc1cccc(C)c1-c1cc2nc(n1)NS(=O)(=O)c1cccc(c1)C(=O)N(CC1CCC(O)(C(F)(F)F)CC1)[C@H](CC(C)(C)C)CO2` (some centres unmarked) [Compound 904], the EC50 (Table 10) was under 1000 nM.

On to `Cc1cccc(C)c1-c1cc2nc(n1)NS(=O)(=O)c1cccc(c1)C(=O)N(CC1CCC(O)(C(F)(F)F)CC1)[C@H](CC(C)(C)C)CO2` (some centres unmarked) [Compound 905], for which the EC50 (Table 10) is under 1000 nM. Under setting [2], the Emax was over 60%.

With `Cc1cccc(C)c1-c1cc2nc(n1)NS(=O)(=O)c1cc(n(C)n1)C(=O)N(Cc1ccc(N3CCOCC3)cc1)[C@H](CC(C)(C)C)CO2` [Compound 906], the EC50 (Table 10) is under 1000 nM. Under setting [2], the Emax is over 60%.

On to `COC[C@]1(O)CC[C@@H](CN2C(=O)c3cccc(c3)S(=O)(=O)Nc3nc(cc(-c4c(C)cccc4C)n3)OC[C@H]2CC(C)(C)C)CC1` [Compound 907], for which, where the note is “Table 10”, the EC50 was under 1000 nM. Also, the Emax under setting [2] is over 60%.

On to `Cc1cccc(C)c1-c1cc2nc(n1)NS(=O)(=O)c1cccc(c1)C(=O)N(CC1CCC(O)(CO)CC1)[C@H](CC(C)(C)C)CO2` (some centres unmarked) [Compound 908], for which the EC50 (Table 10) was under 1000 nM. Moreover, the Emax under setting [2] is over 60%.

For `Cc1cccc(C)c1-c1cc2nc(n1)NS(=O)(=O)c1cccc(c1)C(=O)N(C[C@H]1CC[C@@H](N3CCCC3=O)CC1)[C@H](CC(C)(C)C)CO2` [Compound 910], the EC50 (Table 10) is under 1000 nM. For the same compound, the Emax under setting [2] was over 60%.

With `Cc1cccc(C)c1-c1cc2nc(n1)NS(=O)(=O)c1cccc(c1)C(=O)N(CC1CCC(NCC(=O)O)CC1)[C@H](CC(C)(C)C)CO2` (some centres unmarked) [Compound 911], the EC50 (Table 10) was in the range of 3000 to 30000 nM. Besides, the Emax under setting [2] is 30 to 60%.

Consider `Cc1cccc(C)c1-c1cc2nc(n1)NS(=O)(=O)c1cccc(c1)C(=O)N(CC1CCC(NCC(=O)O)CC1)[C@H](CC(C)(C)C)CO2` (some centres unmarked) [Compound 912], for which the activation at 10 µM (Table 10, read-out: HBE activity at 10 (μM) (%)) is under 300%.

For the compound `Cc1cccc(C)c1-c1cc2nc(n1)NS(=O)(=O)c1cccc(c1)C(=O)N(CC1CCC(N3C[C@@H](C)O[C@@H](C)C3)CC1)[C@H](CC(C)(C)C)CO2` (some centres unmarked) [Compound 913], the EC50 (Table 10) was under 1000 nM. Further, the Emax under setting [2] is over 60%.

Take `Cc1cccc(C)c1-c1cc2nc(n1)NS(=O)(=O)c1cccc(c1)C(=O)N(CC1CCC(N3C[C@@H](C)O[C@@H](C)C3)CC1)[C@H](CC(C)(C)C)CO2` (some centres unmarked) [Compound 914]: the EC50 (Table 10) was under 1000 nM.

As for `Cc1cccc(C)c1-c1cc2nc(n1)NS(=O)(=O)c1cccc(c1)C(=O)N(Cc1cccc(Br)n1)[C@H](CC(C)(C)C)CO2` [Compound 992], under setting [3], the activation at 10 µM is over 600%.

Take `Cc1cccc(C)c1-c1cc2nc(n1)NS(=O)(=O)c1cccc(c1)C(=O)N(Cc1ccc(Br)cn1)[C@H](CC(C)(C)C)CO2` [Compound 993]: the activation at 10 µM under setting [3] is over 600%.

For `Cc1cccc(C)c1-c1cc2nc(n1)NS(=O)(=O)c1cccc(c1)C(=O)N(Cc1cc(N(C)CC(C)(C)C)ccn1)[C@H](CC(C)(C)C)CO2` [Compound 994], the activation at 10 µM under setting [3] is over 600%.

Take `Cc1cccc(C)c1-c1cc2nc(n1)NS(=O)(=O)c1cccc(c1)C(=O)N(Cc1cc(NC(C)C)ccn1)[C@H](CC(C)(C)C)CO2` [Compound 995]: the activation at 10 µM under setting [3] is over 600%.

As for `Cc1cccc(C)c1-c1cc2nc(n1)NS(=O)(=O)c1cccc(c1)C(=O)N(Cc1ccc(NC(C)C)cn1)[C@H](CC(C)(C)C)CO2` [Compound 996], for the setting “Table 13”, the EC50 is under 1000 nM. The Emax under setting [4] is over 60%.

`Cc1cccc(C)c1-c1cc2nc(n1)NS(=O)(=O)c1cccc(c1)C(=O)N(CC1(N(C)C)CC3(CCC3)C1)[C@H](CC(C)(C)C)CO2` [Compound 997]: under setting [3], the activation at 10 µM is over 600%.

For `Cc1cccc(C)c1-c1cc2nc(n1)NS(=O)(=O)c1cccc(c1)C(=O)N(Cc1cc3ccoc3cn1)[C@H](CC(C)(C)C)CO2` [Compound 998], the activation at 10 µM under setting [3] was over 600%.

Turning to `Cc1cccc(C)c1-c1cc2nc(n1)NS(=O)(=O)c1cccc(c1)C(=O)N(CC1(NC(=O)OC(C)(C)C)CC3(CCC3)C1)[C@H](CC(C)(C)C)CO2` [Compound 999], the activation at 10 µM under setting [3] is over 600%.

With `Cc1cccc(C)c1-c1cc2nc(n1)NS(=O)(=O)c1cccc(c1)C(=O)N(CC1CC3(C1)CC(N(C)C)C3)[C@H](CC(C)(C)C)CO2` (some centres unmarked) [Compound 1000], the activation at 10 µM under setting [3] was over 600%.

For the compound `COC(=O)NC1CC2(CC(CN3C(=O)c4cccc(c4)S(=O)(=O)Nc4nc(cc(-c5c(C)cccc5C)n4)OC[C@H]3CC(C)(C)C)C2)C1` (some centres unmarked) [Compound 1001], under setting [3], the activation at 10 µM is over 600%.

For the compound `Cc1cccc(C)c1-c1cc2nc(n1)NS(=O)(=O)c1cccc(c1)C(=O)N(CC1CC3(C1)CC(NC(=O)OC1CC1)C3)[C@H](CC(C)(C)C)CO2` (some centres unmarked) [Compound 1002], the activation at 10 µM under setting [3] was over 600%.

Consider `Cc1cccc(C)c1-c1cc2nc(n1)NS(=O)(=O)c1cccc(c1)C(=O)N(CC1CC3(C1)CC(NC(=O)OC(C)C)C3)[C@H](CC(C)(C)C)CO2` (some centres unmarked) [Compound 1003], for which, under setting [3], the activation at 10 µM was over 600%.

Consider `Cc1cccc(C)c1-c1cc2nc(n1)NS(=O)(=O)c1cccc(c1)C(=O)N(CC1CC3(C1)CC(NC(=O)OC(C)(C)C)C3)[C@H](CC(C)C)CO2` (some centres unmarked) [Compound 1004], for which, under setting [5], the activation at 10 µM was over 600%.

For `Cc1cccc(C)c1-c1cc2nc(n1)NS(=O)(=O)c1cccc(c1)C(=O)N(C[C@H]1C[C@@H](NC(=O)OC(C)C)C1)[C@H](CC(C)(C)C)CO2` [Compound 1005], the EC50 (Table 12) was under 1000 nM. Further, under setting [6], the Emax was over 60%.

Take `Cc1cccc(C)c1-c1cc2nc(n1)NS(=O)(=O)c1cccc(c1)C(=O)N(C[C@H]1C[C@@H](NC(=O)OC(C)C)C1)[C@H](CC(C)(C)C)CO2` [Compound 1006]: under setting [5], the activation at 10 µM was over 600%.

Regarding `Cc1cccc(C)c1-c1cc2nc(n1)NS(=O)(=O)c1cccc(c1)C(=O)N(CC1CC(C)(C)C1)[C@H](CC(C)(C)C)CO2` [Compound 1007], the activation at 10 µM under setting [5] is over 600%.

On to `Cc1cccc(C)c1-c1cc2nc(n1)NS(=O)(=O)c1cccc(c1)C(=O)N(Cc1ncc(N(C)C)c(C)n1)[C@H](CC(C)(C)C)CO2` [Compound 1008], for which, under setting [5], the activation at 10 µM is over 600%.

As to `Cc1cc(C)nc(CN2C(=O)c3cccc(c3)S(=O)(=O)Nc3nc(cc(-c4c(C)cccc4C)n3)OC[C@H]2CC(C)(C)C)n1` [Compound 1009], the EC50 (Table 12) was under 1000 nM. Also, under setting [6], the Emax was over 60%.

On to `Cc1cccc(C)c1-c1cc2nc(n1)NS(=O)(=O)c1cccc(c1)C(=O)N(Cc1ncc(N3CC4(CCOC4)C3)cn1)[C@H](CC(C)(C)C)CO2` [Compound 1054], for which the EC50 (Table 13) is under 1000 nM. The Emax under setting [4] was over 60%.

For `Cc1cccc(C)c1-c1cc2nc(n1)NS(=O)(=O)c1cccc(c1)C(=O)N(Cc1ccc(N3CC4(CCOC4)C3)cn1)[C@H](CC(C)(C)C)CO2` [Compound 1055], the activation at 10 µM under setting [3] is over 600%.

`Cc1cccc(C)c1-c1cc2nc(n1)NS(=O)(=O)c1cccc(c1)C(=O)N(Cc1ccc(N3CC4(CC(=O)C4)C3)cn1)[C@H](CC(C)(C)C)CO2` [Compound 1056]: the EC50 (Table 13) fell in the range of 1000 to 3000 nM. The Emax under setting [4] is over 60%.

With `Cc1cccc(C)c1-c1cc2nc(n1)NS(=O)(=O)c1cccc(c1)C(=O)N(Cc1ccc(C3CC4(C3)CC(C)(C)C4)cn1)[C@H](CC(C)(C)C)CO2` [Compound 1057], under setting [3], the activation at 10 µM was over 600%.

As for `Cc1cccc(C)c1-c1cc2nc(n1)NS(=O)(=O)c1cccc(c1)C(=O)N(Cc1ccc(N3CC4(CCCO4)C3)cn1)[C@H](CC(C)(C)C)CO2` [Compound 1058], under “Table 13”, the EC50 is under 1000 nM. In addition, the Emax under setting [4] was over 60%.

As for `COC1(C)CCN(c2ccc(CN3C(=O)c4cccc(c4)S(=O)(=O)Nc4nc(cc(-c5c(C)cccc5C)n4)OC[C@H]3CC(C)(C)C)nc2)CC1` [Compound 1059], the EC50 (Table 13) was under 1000 nM. Moreover, the Emax under setting [4] was over 60%.

Take `Cc1cccc(C)c1-c1cc2nc(n1)NS(=O)(=O)c1cccc(c1)C(=O)N(Cc1ccc(N3CC4(CCOCC4)C3)cn1)[C@H](CC(C)(C)C)CO2` [Compound 1060]: for the setting “Table 13”, the EC50 is under 1000 nM. The Emax under setting [4] is over 60%.
